The results in this text go back to ChEMBL document CHEMBL5543096 (J Med Chem, 2024).

The source made the active and inactive calls. No cut-off for these calls is given here.

For series [1], the system named is Mus musculus. The experiment in a line: Antidepressant activity in Reserpine-induced depressive C57BL/6J mouse model assessed as decrease in immobility time at 0.3 mg/kg,ip administration measured after 30 mins by tail suspension test. The series is classed as functional, organism-based.
For series [2], the system named is Mus musculus. The experiment in a line: Antidepressant activity in Reserpine-induced depressive C57BL/6J mouse model assessed as decrease in immobility time at 0.3 mg/kg,ip administration measured after 7 days by tail suspension test. The series is classed as functional, organism-based. Conditions: time 7.0 day.
Series [3] deals with Mus musculus. The experiment in a line: Antidepressant activity in Reserpine-induced depressive C57BL/6J mouse model assessed as decrease in immobility time at 0.1 to 1 mg/kg,ip administration measured after 7 days by tail suspension test. The series is classed as functional, organism-based. Particulars: dose 0.1-1 mg/kg, time 7.0 day.
For series [4], the system named is Mus musculus. The experiment in a line: Antidepressant activity in Reserpine-induced depressive C57BL/6J mouse model assessed as decrease in immobility time at 0.1 to 0.3 mg/kg,ip administration measured after 30 mins by tail suspension test. The series is classed as functional, organism-based. Particulars: dose 0.1-0.3 mg/kg.
Series [5] in a line: Toxicity in chronic restraint stress-induced depressive C57BL/6J mouse model assessed as decrease in percentage of spontaneous alternation at 2 mg/kg,ip administration by Y-maze test. Particulars: in vivo. The series is classed as organism-based.
Series [6] deals with Mus musculus. The experiment in a line: Antidepressant activity in Reserpine-induced depressive C57BL/6J mouse model assessed as decrease in immobility time at 0.3 mg/kg,ip administration measured after 5 days by tail suspension test. The series is classed as functional, organism-based. Conditions: time 5.0 day.
Series [7] can be described thus: Toxicity in chronic restraint stress-induced depressive C57BL/6J mouse model assessed as decrease in percentage of spontaneous alternation at 1 mg/kg,ip administration by Y-maze test. The series is classed as organism-based. Particulars: in vivo.
The test system of series [8] is Mus musculus. The experiment in a line: Antidepressant activity in chronic restraint stress-induced depressive C57BL/6J mouse model assessed as increase in hippocampal BDNF mRNA expression at 0.3 mg/kg,ip administration measured after 8 hrs by qRT-PCR analysis. The series is classed as functional, organism-based. (Quantitative PCR measures a nucleic acid by following its amplification.)

The test system of series [9] is Mus musculus. The experiment in a line: Antidepressant activity in Reserpine-induced depressive C57BL/6J mouse model assessed as decrease in immobility time at 0.3 mg/kg,ip administration measured for 1 to 3 days by tail suspension test. The series is classed as functional, organism-based. Particulars: time 1-3 day.

In the case of `CN1[C@@H]2C[C@@H](OC(=O)C(F)(CBr)c3ccccc3)C[C@H]1[C@@H]1O[C@@H]12` (some centres not stated), the outcome in the series with Mus musculus [1] and with Mus musculus [2] was inactive.
In the case of `CN1[C@@H]2CC[C@H]1C[C@@H](OC(=O)C(F)(CO)c1ccccc1)C2` (some centres not stated), the result in the series with Mus musculus [1] and in the series on Mus musculus [2] was inactive.
With `CN1[C@@H]2C[C@@H](OC(=O)C(F)(CO)Cc3cccc4ccccc34)C[C@H]1[C@@H]1O[C@@H]12` (some centres not stated), in the series on Mus musculus [2], the result was inactive.
For the molecule `Cc1ccc(S(=O)(=O)OCC(F)(Cc2ccccc2)C(=O)O[C@@H]2C[C@@H]3[C@H]4O[C@H]4[C@H](C2)N3C)cc1` (some centres not stated), the outcome with Mus musculus [1] and in the series on Mus musculus [2] was inactive.
For `CCCCC(F)(CCl)C(=O)O[C@@H]1C[C@@H]2[C@H]3O[C@H]3[C@H](C1)N2C` (some centres not stated), the outcome with Mus musculus [1] and with Mus musculus [2] was inactive.
As to `CN1[C@@H]2C[C@@H](OC(=O)C(F)(CO)c3ccccc3)C[C@H]1[C@@H]1O[C@@H]12` (some centres not stated), the result in the series with Mus musculus [1] and in the series on Mus musculus [2] was Active.
With `CN1[C@@H]2C[C@@H](OC(=O)C(F)c3ccccc3)C[C@H]1[C@@H]1O[C@@H]12` (some centres not stated), the outcome in the series on Mus musculus [1] and with Mus musculus [2] was inactive.
With `CN1[C@@H]2C[C@@H](OC(=O)C(F)(CCl)Cc3ccccc3)C[C@H]1[C@@H]1O[C@@H]12` (some centres not stated), the outcome in the series with Mus musculus [1] and in the series on Mus musculus [2] was inactive.
As for `CN1[C@@H]2C[C@@H](OC(=O)C(F)(CN=[N+]=[N-])Cc3ccccc3)C[C@H]1[C@@H]1O[C@@H]12` (some centres not stated), the outcome in the series with Mus musculus [1] and in the series with Mus musculus [2] was inactive.
Regarding `C=CCC(F)(CCl)C(=O)O[C@@H]1C[C@@H]2[C@H]3O[C@H]3[C@H](C1)N2C` (some centres not stated), the result with Mus musculus [1] and in the series on Mus musculus [2] was inactive.
Regarding `CN1[C@@H]2C[C@@H](OC(=O)C(F)(CO)c3cccc(F)c3)C[C@H]1[C@@H]1O[C@@H]12` (some centres not stated), in the series on Mus musculus [1], the outcome was Active. The outcome in the series on Mus musculus [2] was inactive.
In the case of `CN1[C@@H]2C[C@@H](OC(=O)C(F)(CO)Cc3ccccc3)C[C@H]1[C@@H]1O[C@@H]12` (some centres not stated), the outcome in the series with Mus musculus [1] was Active. For the same molecule, the outcome with Mus musculus [2] was inactive.
For the molecule `CN1[C@@H]2C[C@@H](OC(=O)C(F)(CCl)c3ccccc3)C[C@H]1[C@@H]1O[C@@H]12` (some centres not stated), the result in the series on Mus musculus [1] and in the series on Mus musculus [2] was inactive.
Take `CN1[C@@H]2C[C@@H](OC(=O)C(F)(CO)CCCc3ccccc3)C[C@H]1[C@@H]1O[C@@H]12` (some centres not stated): the outcome with Mus musculus [1] and in the series with Mus musculus [2] was inactive.
`CN1[C@@H]2C[C@@H](OC(=O)C(F)(CO)CCc3ccccc3)C[C@H]1[C@@H]1O[C@@H]12` (some centres not stated): the outcome in the series with Mus musculus [1] and in the series with Mus musculus [2] was inactive.
In the case of `CN1[C@@H]2C[C@@H](OC(=O)C(F)(CO)Cc3ccccc3F)C[C@H]1[C@@H]1O[C@@H]12` (some centres not stated), the result in the series with Mus musculus [2] was inactive.
Consider `CCCCC(F)(CO)C(=O)O[C@@H]1C[C@@H]2[C@H]3O[C@H]3[C@H](C1)N2C` (some centres not stated), for which the result with Mus musculus [1] and in the series on Mus musculus [2] was inactive.
With `CN1[C@@H]2C[C@@H](OC(=O)C(F)(CBr)Cc3ccccc3)C[C@H]1[C@@H]1O[C@@H]12` (some centres not stated), the outcome in the series with Mus musculus [1] and in the series with Mus musculus [2] was inactive.
Turning to `C=CCC(F)(CO)C(=O)O[C@@H]1C[C@@H]2[C@H]3O[C@H]3[C@H](C1)N2C` (some centres not stated), the outcome in the series on Mus musculus [1] and in the series with Mus musculus [2] was inactive.
For `CN1[C@@H]2C[C@@H](OC(=O)C(F)(CO)Cc3ccccc3Br)C[C@H]1[C@@H]1O[C@@H]12` (some centres not stated), in the series with Mus musculus [2], the result was inactive.
For `CN1[C@@H]2C[C@@H](OC(=O)C(F)(CI)c3ccccc3)C[C@H]1[C@@H]1O[C@@H]12` (some centres not stated), the result in the series on Mus musculus [1] and with Mus musculus [2] was inactive.
As to `Cc1ccc(S(=O)(=O)OCC(F)(C(=O)O[C@@H]2C[C@@H]3[C@H]4O[C@H]4[C@H](C2)N3C)c2ccccc2)cc1` (some centres not stated), the outcome with Mus musculus [1] and in the series on Mus musculus [2] was inactive.
For `CN1[C@@H]2C[C@@H](OC(=O)[C@](F)(CO)c3ccccc3)C[C@H]1[C@@H]1O[C@@H]12`, the outcome in the series with Mus musculus [3] was inactive. Also, in the series on Mus musculus [4], the outcome was Active.
With `CN1[C@@H]2C[C@@H](OC(=O)C(F)(CO)c3ccc(F)cc3)C[C@H]1[C@@H]1O[C@@H]12` (some centres not stated), in the series on Mus musculus [2], the result was inactive.
`CN1[C@@H]2C[C@@H](OC(=O)[C@H](CO)c3ccccc3)C[C@H]1[C@@H]1O[C@@H]12` [SCOPOLAMINE]: the Activity result in series [5] and in series [7] was “Toxic” each time. Also, the result with Mus musculus [1], in the series with Mus musculus [8] and in the series with Mus musculus [9] was Active. Moreover, the outcome in the series on Mus musculus [6] and in the series with Mus musculus [2] was inactive.
Turning to `CN1[C@@H]2C[C@@H](OC(=O)C(F)(CO)Cc3ccc(C(F)(F)F)cc3)C[C@H]1[C@@H]1O[C@@H]12` (some centres not stated), the outcome with Mus musculus [2] was inactive.
